Target: T1, zebrafish Ape1 (zApe1) (Danio rerio, UniProt A0MTA1, T58C)
T1 sequence (A0MTA1 1-310 T58C): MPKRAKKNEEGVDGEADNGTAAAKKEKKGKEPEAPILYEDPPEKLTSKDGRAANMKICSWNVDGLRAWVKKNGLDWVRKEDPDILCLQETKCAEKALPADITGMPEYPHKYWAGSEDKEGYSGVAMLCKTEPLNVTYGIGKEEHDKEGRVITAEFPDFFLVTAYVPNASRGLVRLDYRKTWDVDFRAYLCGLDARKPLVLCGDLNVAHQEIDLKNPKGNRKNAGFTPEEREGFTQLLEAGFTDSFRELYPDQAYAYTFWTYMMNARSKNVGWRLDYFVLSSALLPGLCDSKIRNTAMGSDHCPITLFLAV
Experiment: redox EMSA: Ape1-stimulated AP-1 DNA binding, HEX-labelled oligonucleotide
Assay type: biochemical

IC50: 5 µM
Compound: CCCCCCCCC/C(=C\C1=C(C)C(=O)C(OC)=C(OC)C1=O)C(=O)O [compound 5, (E)-3-(4,5-dimethoxy-2-methyl-3,6-dioxocyclohexa-1,4-dienyl)-2-nonylpropenoic acid]
